The values that follow come from US8871756B2 (Hoffmann-La Roche Inc., priority 2011, dated 2014).

Counter-ions that a name gives are not always drawn.

The test system of this experiment is RSV Long strain. Put plainly: Viral cytopathic effect (CPE) assay, anti-RSV activity. Type of experiment: cell-based, Respiratory Syncytial Virus. To be noted: human respiratory syncytial virus, 144 h, RSV Long strain (ATCC); cell viability after 6 days, Cell Counting kit-8. Summed up:
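EC50 was derived from CCK-8 viability at 450/630 nm measured 6 days post-infection. Infection used enough RSV Long strain for approximately 80–90% cytopathic effect, in the presence of half-log serially diluted compound. Cells were plated the day before at 6×10^3 per well in DMEM/10% FBS.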

The compound `NCCNc1cc(N2CCCc3ccccc3C2)nc2c(Cl)cccc12` [Example 118-20, N-[8-Chloro-2-(1,3,4,5-tetrahydro-2H-2-benzazepin-2-yl)quinolin-4-yl]ethane-1,2-diamine] came in with an EC50 of 1.13 µM.
With `CCc1ccc2nc(N3CCS(=O)(=O)c4ccccc4C3)cc(CCC(=O)O)c2c1` [Example 95, 3-[2-(1,1-Dioxido-2,3-dihydro-1,4-benzothiazepin-4(5H)-yl)-6-ethylquinolin-4-yl]propanoic acid] the figure was 3.04 µM; with `Cc1ccc2nc(N3CC[S+]([O-])c4ccccc4C3)nc(NC3(CN)COC3)c2c1` (stereo not drawn) [Example 91, N-[3-(Aminomethyl)oxetan-3-yl]-6-methyl-2-(1-oxido-2,3-dihydro-1,4-benzothiazepin-4(5H)-yl)quinazolin-4-amine], 0.004 µM.
Regarding `COc1ccc2c(c1)S(=O)(=O)CCN(c1cc(NCC3(N)COC3)c3ccccc3n1)C2` [Example 2-9, N-[(3-Aminooxetan-3-yl)methyl]-2-(8-methoxy-1,1-dioxido-2,3-dihydro-1,4-benzothiazepin-4(5H)-yl)quinolin-4-amine], the EC50 was 0.007 µM.
With `O=S1(=O)CCN(c2cc(N[C@@H]3CNC[C@H]3O)c3ccccc3n2)Cc2ccccc21` (relative stereo) [Example 28-2, trans-4-{[2-(1,1-Dioxido-2,3-dihydro-1,4-benzothiazepin-4(5H)-yl)quinolin-4-yl]amino}pyrrolidin-3-ol], a half-maximal effect (EC50) was put at 0.007 µM.
The compound `Cc1ccc2nc(N3CCS(=O)(=O)c4ccccc4C3)cc(NCC(C)(C)N)c2c1` [Example 5-3, N˜1˜-[2-(1,1-Dioxido-2,3-dihydro-1,4-benzothiazepin-4(5H)-yl)-6-methylquinolin-4-yl]-2-methylpropane-1,2-diamine] returned an EC50 of 0.015 µM.
As to `NCCNc1cc(N2CCCc3ccccc3C2)nc2ccccc12` [Example 118-9, N-[2-(1,3,4,5-Tetrahydro-2H-2-benzazepin-2-yl)quinolin-4-yl]ethane-1,2-diamine], the EC50 was determined as 0.202 µM.
With `CO/N=C1\CCN(c2cc(NCC3(N)COC3)c3cc(C)ccc3n2)Cc2ccccc21` [Example 112-2, N-[(3-Aminooxetan-3-yl)methyl]-2-[(5E)-5-(methoxyimino)-1,3,4,5-tetrahydro-2H-2-benzazepin-2-yl]-6-methylquinolin-4-amine] the figure was 0.092 µM; with `Cc1ccc2nc(N3CCS(=O)(=O)c4ccc(O)cc4C3)cc(NCC3(N)COC3)c2c1` [Example 66, 4-(4-{[(3-Aminooxetan-3-yl)methyl]amino}-6-methylquinolin-2-yl)-2,3,4,5-tetrahydro-1,4-benzothiazepin-7-ol 1,1-dioxide], 0.002 µM; with `Cc1ccc2nc(N3CCS(=O)(=O)c4ccccc4C3)cc(NCC(F)(F)C(F)(F)CN)c2c1` [Example 3-43, N-[2-(1,1-Dioxido-2,3-dihydro-1,4-benzothiazepin-4(5H)-yl)-6-methylquinolin-4-yl]-2,2,3,3-tetrafluorobutane-1,4-diamine], 2.39 µM.
`Cc1ccc2nc(N3CCS(=O)(=O)c4ccccc4C3)cc(NC(C)CC(N)=O)c2c1` (stereo not drawn) [Example 36-2, 3-{[2-(1,1-Dioxido-2,3-dihydro-1,4-benzothiazepin-4(5H)-yl)-6-methylquinolin-4-yl]amino}butanamide] registered a concentration for a half-maximal effect (EC50) of 1.47 µM.
The compound `COc1ccc2c(c1)S(=O)(=O)CCN(c1cc(NCC3(N)COC3)c3cc(Cl)ccc3n1)C2` [Example 3-13, N-[(3-Aminooxetan-3-yl)methyl]-6-chloro-2-(8-methoxy-1,1-dioxido-2,3-dihydro-1,4-benzothiazepin-4(5H)-yl)quinolin-4-amine] showed an EC50 of 0.099 µM.
In turn, `Cc1ccc2nc(N3CCS(=O)(=O)c4ccccc4C3)cc(NCCCCCN)c2c1` [Example 3-55, N-[2-(1,1-Dioxido-2,3-dihydro-1,4-benzothiazepin-4(5H)-yl)-6-methylquinolin-4-yl]pentane-1,5-diamine] returned an EC50 of 0.027 µM.
`Cc1ccc2nc(N3CCS(=O)(=O)c4ccccc4C3)cc(NC(=O)C(C)(C)N)c2c1` [Example 40-2, N-[2-(1,1-Dioxido-2,3-dihydro-1,4-benzothiazepin-4(5H)-yl)-6-methylquinolin-4-yl]-2-methylalaninamide]: the midpoint of the response, the EC50, lay at 4.66 µM.
The compound `Cc1ccc2c(c1)S(=O)(=O)CCN(c1cc(NCC3(N)COC3)c3cc(C)ccc3n1)C2` [Example 2-5, N-[(3-Aminooxetan-3-yl)methyl]-6-methyl-2-(8-methyl-1,1-dioxido-2,3-dihydro-1,4-benzothiazepin-4(5H)-yl)quinolin-4-amine] showed an EC50 of 0.006 µM.
Compound `Cc1ccc2nc(N3CCS(=O)(=O)c4ccccc4C3)cc(N3CCOCC3)c2c1` [Example 9-4, 4-[6-Methyl-4-(morpholin-4-yl)quinolin-2-yl]-2,3,4,5-tetrahydro-1,4-benzothiazepine 1,1-dioxide] showed an EC50 of 8.87 µM.
Compound `Cc1ccc2nc(N3CCS(=O)(=O)c4ccccc4C3)cc(N[C@@H]3CCC[C@H]3N)c2c1` (relative stereo) [Example 15-5, trans-N-[2-(1,1-Dioxido-2,3-dihydro-1,4-benzothiazepin-4(5H)-yl)-6-methylquinolin-4-yl]cyclopentane-1,2-diamine] gave an EC50 of 0.74 µM.
With `Cc1ccc2nc(N3CCS(=O)(=O)c4ccccc4C3)cc(N3CC[C@@H](O)C3)c2c1` [Example 15-4, (3R)-1-[2-(1,1-Dioxido-2,3-dihydro-1,4-benzothiazepin-4(5H)-yl)-6-methylquinolin-4-yl]pyrrolidin-3-ol] the figure was 0.257 µM; with `Cc1ccc2nc(N3CCS(=O)(=O)c4ccccc4C3)cc(N[C@@H]3CCCC[C@H]3N)c2c1` (relative stereo) [Example 3-15, trans-N-[2-(1,1-Dioxido-2,3-dihydro-1,4-benzothiazepin-4(5H)-yl)-6-methylquinolin-4-yl]cyclohexane-1,2-diamine], 0.482 µM; with `NCCNS(=O)(=O)c1cc(N2CCCc3ccccc3C2)nc2ccccc12` [Example 132, N-(2-Aminoethyl)-2-(1,3,4,5-tetrahydro-2H-2-benzazepin-2-yl)quinoline-4-sulfonamide trifluoroacetate], 7.81 µM.
The compound `Cc1ccc2nc(N3CCS(=O)(=O)c4ccccc4C3)cc(NCCCCCCCCN)c2c1` [Example 12-5, N-[2-(1,1-Dioxido-2,3-dihydro-1,4-benzothiazepin-4(5H)-yl)-6-methylquinolin-4-yl]octane-1,8-diamine] displayed an EC50 of 0.448 µM.
As for `O=S1(=O)CCN(c2cc(NCC3(NCc4ccccc4)COC3)c3cc(Cl)ccc3n2)Cc2cc(F)ccc21` [Example 3-2, N-{[3-(Benzylamino)oxetan-3-yl]methyl}-6-chloro-2-(7-fluoro-1,1-dioxido-2,3-dihydro-1,4-benzothiazepin-4(5H)-yl)quinolin-4-amine], it took 3.05 µM to reach a half-maximal effect (EC50).
In turn, `Cc1ccc2nc(N3CCS(=O)(=O)c4ccccc4C3)cc(NCCN3CCOCC3)c2c1` [Example 12-1, 2-(1,1-Dioxido-2,3-dihydro-1,4-benzothiazepin-4(5H)-yl)-6-methyl-N-[2-(morpholin-4-yl)ethyl]quinolin-4-amine] showed an EC50 of 0.536 µM.
`NCCCNc1cc(N2CCS(=O)(=O)c3ccccc3C2)nc2ccc(OC(F)(F)F)cc12` [Example 17-1, N-[2-(1,1-Dioxido-2,3-dihydro-1,4-benzothiazepin-4(5H)-yl)-6-(trifluoromethoxy)quinolin-4-yl]propane-1,3-diamine] showed an EC50 of 5.54 µM.
With `NCCNc1cc(N2CCCc3ccccc3C2)nc2ccc(Cl)cc12` [Example 118-5, N-[6-Chloro-2-(1,3,4,5-tetrahydro-2H-2-benzazepin-2-yl)quinolin-4-yl]ethane-1,2-diamine], the response was half-maximal at 0.178 µM (EC50).
As for `Cc1ccc2nc(N3CCS(=O)(=O)c4ccccc4C3)cc(N3C[C@H](O)CC3=O)c2c1` [Example 47-1, (4R)-1-[2-(1,1-Dioxido-2,3-dihydro-1,4-benzothiazepin-4(5H)-yl)-6-methylquinolin-4-yl]-4-hydroxypyrrolidin-2-one], the half-maximal effective concentration (EC50) came to 7.88 µM.
`CCNc1cc(N2CCS(=O)(=O)c3ccccc3C2)nc2ccc(Cl)cc12` [Example 9-30, 6-Chloro-2-(1,1-dioxido-2,3-dihydro-1,4-benzothiazepin-4(5H)-yl)-N-ethylquinolin-4-amine] displayed an EC50 of 8.59 µM.
`Cc1cccc2nc(N3CCS(=O)(=O)c4ccccc4C3)cc(NCCCN)c12` [Example 17-6, N-[2-(1,1-Dioxido-2,3-dihydro-1,4-benzothiazepin-4(5 H)-yl)-5-methylquinolin-4-yl]propane-1,3-diamine] yielded an EC50 of 0.086 µM.
As to `Cc1ccc2nc(N3CCS(=O)(=O)c4ccccc4C3)cc(NC[C@H]3COC(N)=N3)c2c1` [Example 38-4, N-{[(4S)-2-Amino-4,5-dihydro-1,3-oxazol-4-yl]methyl}-2-(1,1-dioxido-2,3-dihydro-1,4-benzothiazepin-4(5 H)-yl)-6-methylquinolin-4-amine], the EC50 turned out to be 0.064 µM.
Regarding `CCNC(=O)Nc1cc(N2CCC(F)(F)c3ccccc3C2)nc2ccc(C)cc12` [Example 110-14], the response was half-maximal at 0.648 µM (EC50).
With `Cc1ccc2nc(N3CCS(=O)(=O)c4ccccc4C3)cc(NCCCCN)c2c1` [Example 9-19, N-[2-(1,1-Dioxido-2,3-dihydro-1,4-benzothiazepin-4(5 H)-yl)-6-methylquinolin-4-yl]butane-1,4-diamine] the figure was 0.0007 µM.
`Cc1ccc2nc(N3CCC(F)(F)c4ccccc4C3)cc(NC3CCCC(N)C3)c2c1` (stereo not drawn) [Example 111-7, N-[2-(5,5-Difluoro-1,3,4,5-tetrahydro-2H-2-benzazepin-2-yl)-6-methylquinolin-4-yl]cyclohexane-1,3-diamine] gave an EC50 of 0.873 µM.
Compound `N[C@@H]1CN(c2cc(N3CCS(=O)(=O)c4ccccc4C3)nc3ccncc23)C[C@H]1O` (relative stereo) [Example 24, trans-4-Amino-1-[2-(1,1-dioxido-2,3-dihydro-1,4-benzothiazepin-4(5H)-yl)-1,6-naphthyridin-4-yl]pyrrolidin-3-ol] displayed an EC50 of 0.016 µM.
